Laboratory results reported in patent US20110092367A1, “Herbicidal Compositions Comprising 4-amino-3,6-dichloropyridine-2-carboxylic Acid” (BASF SE, priority 2008, published 2011).

Key:
Assay type in all cases: in vivo
Veronica persica = assay: Field trial Example 1, successive application: damage on VERPE
Source text: (§1) Aminiopyralid was used as commercial aquaeous solution having an active ingredient concentration of 240 g/l (Milestone™). Metazachlor was used as a commercial suspension concentrate having an active ingredient concentration of 500 g/l (Butisan S®).
(§2) The performance of aminopyralid applied as an alone treatment at 15, 30 and 50 g a.i./ha applied as an early post emergence treatment and an post emergence treatment in comparison to two different applications including metazachlor at 500 g a.i./ha as an early post emergence application in succession of aminopyralid as a post emergence application at 15 and 30 g a.i./ha was assessed in an oilseed rape field trials.
(§3) The early post emergence treatment was applied by means of fine distributed nozzles at the growth stage (GS) of the crop BBCH 11-12.
(§4) The post emergence treatment was applied by means of fine distributed nozzles at the growth stage (GS) of the crop BBCH 13-14.
(§5) The test period extended over the autumn and spring season (205 days).
(§6) In the following experiments, the herbicidal activity for the individual herbicide compounds (solo application) and of the herbicidal succession was assessed 4 times:
(§7) The evaluation for the damage on undesired weeds caused by the chemical compositions was carried out using a scale from 0 to 100%, compared to the untreated control plants. Here, 0 means no damage and 100 means complete destruction of the plants.

Anthemis arvensis = assay: Field trial Example 1, successive application: damage on ANTAR
Source text: as §1, §2, §3, §4, §5, §6, §7

Papaver rhoeas [1] = assay: Field trial Example 2, combined application: PAPRH
Experimental: as §1, §7
(§8) The value E, which is to be expected if the activity of the individual compounds is just additive, was calculated using the method of S. R. Colby (1967) “Calculating synergistic and antagonistic responses of herbicide combinations”, Weeds 15, p. 22 ff.
(§9) The performance of aminopyralid, applied as an alone treatment at […] and 15 g ai/ha, and the performance of metazachlor, applied as an alone treatment at 375 and 500 g ai/ha, as well as the mixtures of the both compounds have been assessed in winter oilseed rape field trials. The trials have been conducted in Germany at two locations.
(§10) Post emergence treatment was applied by means of fine distributed nozzels at the growth stage (GS/BBCH 11/12).

Sissimbrium officinale = assay: Field trial Example 1, successive application: damage on SSYOF
Source text: as §1, §2, §3, §4, §5, §6, §7

Papaver rhoeas [2] = assay: Field trial Example 1, successive application: damage on PAPRH
Source text: as §1, §2, §3, §4, §5, §6, §7

Centaurea cyanus = assay: Field trial Example 2, combined application: CENCY; settings: Aminopyralid 7.5 g ai/ha solo, 78 DAT
Experimental: as §1, §7, §8, §9, §10

[3] = 15 g ai/ha, treatment A early post emergence, DAT 25/DALT 10
[4] = 15 g ai/ha, treatment A early post emergence, DAT 65/DALT 50
[5] = 15 g ai/ha, treatment A early post emergence, DAT 176/DALT 161
[6] = 15 g ai/ha, treatment B post emergence, DAT 25/DALT 10
[7] = 15 g ai/ha, treatment B post emergence, DAT 65/DALT 50
[8] = 15 g ai/ha, treatment B post emergence, DAT 176/DALT 161
[9] = 30 g ai/ha, treatment A early post emergence, DAT 25/DALT 10
[10] = 30 g ai/ha, treatment A early post emergence, DAT 65/DALT 50
[11] = 30 g ai/ha, treatment A early post emergence, DAT 176/DALT 161
[12] = 30 g ai/ha, treatment B post emergence, DAT 25/DALT 10
[13] = 30 g ai/ha, treatment B post emergence, DAT 65/DALT 50
[14] = 30 g ai/ha, treatment B post emergence, DAT 176/DALT 161
[15] = 50 g ai/ha, treatment A early post emergence, DAT 25/DALT 10
[16] = 50 g ai/ha, treatment A early post emergence, DAT 65/DALT 50
[17] = 50 g ai/ha, treatment A early post emergence, DAT 176/DALT 161
[18] = 50 g ai/ha, treatment B post emergence, DAT 25/DALT 10
[19] = 50 g ai/ha, treatment B post emergence, DAT 65/DALT 50
[20] = 50 g ai/ha, treatment B post emergence, DAT 176/DALT 161
[21] = aminopyralid 15 g ai/ha, treatment A, DAT 205/DALT 190
[22] = aminopyralid 15 g ai/ha, treatment B, DAT 205/DALT 190
[23] = aminopyralid 30 g ai/ha, treatment A, DAT 205/DALT 190
[24] = aminopyralid 30 g ai/ha, treatment B, DAT 205/DALT 190
[25] = aminopyralid 50 g ai/ha, treatment A, DAT 205/DALT 190
[26] = aminopyralid 50 g ai/ha, treatment B, DAT 205/DALT 190

Nc1cc(Cl)nc(C(=O)O)c1Cl [aminopyralid, 4-amino-3,6-dichloropyridine-2-carboxylic acid]
damage on VERPE (Veronica persica; [3]): 0% | damage on VERPE (Veronica persica; [4]): 0% | damage on VERPE (Veronica persica; [5]): 0% | damage on VERPE (Veronica persica; [6]): 0% | damage on VERPE (Veronica persica; [7]): 0% | damage on VERPE (Veronica persica; [8]): 12% | damage on VERPE (Veronica persica; [9]): 23% | damage on VERPE (Veronica persica; [10]): 13% | damage on VERPE (Veronica persica; [11]): 12% | damage on VERPE (Veronica persica; [12]): 0% | damage on VERPE (Veronica persica; [13]): 0% | damage on VERPE (Veronica persica; [14]): 10% | damage on VERPE (Veronica persica; [15]): 73% | damage on VERPE (Veronica persica; [16]): 50% | damage on VERPE (Veronica persica; [17]): 50% | damage on VERPE (Veronica persica; [18]): 13% | damage on VERPE (Veronica persica; [19]): 20% | damage on VERPE (Veronica persica; [20]): 30% | damage on VERPE (Veronica persica; [21]): 0% | damage on VERPE (Veronica persica; [22]): 18% | damage on VERPE (Veronica persica; [23]): 12% | damage on VERPE (Veronica persica; [24]): 12% | damage on VERPE (Veronica persica; [25]): 48% | damage on VERPE (Veronica persica; [26]): 33% | damage on ANTAR (Anthemis arvensis; [3]): 97% | damage on ANTAR (Anthemis arvensis; [4]): 96% | damage on ANTAR (Anthemis arvensis; [5]): 100% | damage on ANTAR (Anthemis arvensis; [6]): 87% | damage on ANTAR (Anthemis arvensis; [7]): 87% | damage on ANTAR (Anthemis arvensis; [8]): 98% | damage on ANTAR (Anthemis arvensis; [9]): 100% | damage on ANTAR (Anthemis arvensis; [10]): 98% | damage on ANTAR (Anthemis arvensis; [11]): 100% | damage on ANTAR (Anthemis arvensis; [12]): 82% | damage on ANTAR (Anthemis arvensis; [13]): 91% | damage on ANTAR (Anthemis arvensis; [14]): 100% | damage on ANTAR (Anthemis arvensis; [15]): 100% | damage on ANTAR (Anthemis arvensis; [16]): 100% | damage on ANTAR (Anthemis arvensis; [17]): 100% | damage on ANTAR (Anthemis arvensis; [18]): 93% | damage on ANTAR (Anthemis arvensis; [19]): 94% | damage on ANTAR (Anthemis arvensis; [20]): 98% | damage on ANTAR (Anthemis arvensis; [21]): 100% | damage on ANTAR (Anthemis arvensis; [22]): 100% | damage on ANTAR (Anthemis arvensis; [23]): 100% | damage on ANTAR (Anthemis arvensis; [24]): 100% | damage on ANTAR (Anthemis arvensis; [25]): 100% | damage on ANTAR (Anthemis arvensis; [26]): 100% | % activity (Papaver rhoeas [1]; Aminopyralid 7.5 g ai/ha solo, 29 DAT): 94% | % activity (Papaver rhoeas [1]; Aminopyralid 7.5 g ai/ha solo, 72 DAT): 88% | % activity (Papaver rhoeas [1]; Aminopyralid 7.5 g ai/ha solo, 78 DAT): 95% | % activity (Papaver rhoeas [1]; Aminopyralid 15 g ai/ha solo, 28 DAT): 92% | % activity (Papaver rhoeas [1]; Aminopyralid 15 g ai/ha solo, 72 DAT): 97% | damage on SSYOF (Sissimbrium officinale; [3]): 33% | damage on SSYOF (Sissimbrium officinale; [4]): 0% | damage on SSYOF (Sissimbrium officinale; [5]): 0% | damage on SSYOF (Sissimbrium officinale; [6]): 53% | damage on SSYOF (Sissimbrium officinale; [7]): 0% | damage on SSYOF (Sissimbrium officinale; [8]): 0% | damage on SSYOF (Sissimbrium officinale; [9]): 71% | damage on SSYOF (Sissimbrium officinale; [10]): 25% | damage on SSYOF (Sissimbrium officinale; [11]): 25% | damage on SSYOF (Sissimbrium officinale; [12]): 60% | damage on SSYOF (Sissimbrium officinale; [13]): 27% | damage on SSYOF (Sissimbrium officinale; [14]): 27% | damage on SSYOF (Sissimbrium officinale; [15]): 86% | damage on SSYOF (Sissimbrium officinale; [16]): 50% | damage on SSYOF (Sissimbrium officinale; [17]): 50% | damage on SSYOF (Sissimbrium officinale; [18]): 72% | damage on SSYOF (Sissimbrium officinale; [19]): 32% | damage on SSYOF (Sissimbrium officinale; [20]): 32% | damage on SSYOF (Sissimbrium officinale; [21]): 0% | damage on SSYOF (Sissimbrium officinale; [22]): 0% | damage on SSYOF (Sissimbrium officinale; [23]): 23% | damage on SSYOF (Sissimbrium officinale; [24]): 50% | damage on SSYOF (Sissimbrium officinale; [25]): 62% | damage on SSYOF (Sissimbrium officinale; [26]): 52% | damage on PAPRH (Papaver rhoeas [2]; [3]): 93% | damage on PAPRH (Papaver rhoeas [2]; [4]): 93% | damage on PAPRH (Papaver rhoeas [2]; [5]): 96% | damage on PAPRH (Papaver rhoeas [2]; [6]): 72% | damage on PAPRH (Papaver rhoeas [2]; [7]): 75% | damage on PAPRH (Papaver rhoeas [2]; [8]): 96% | damage on PAPRH (Papaver rhoeas [2]; [9]): 98% | damage on PAPRH (Papaver rhoeas [2]; [10]): 95% | damage on PAPRH (Papaver rhoeas [2]; [11]): 99% | damage on PAPRH (Papaver rhoeas [2]; [12]): 72% | damage on PAPRH (Papaver rhoeas [2]; [13]): 80% | damage on PAPRH (Papaver rhoeas [2]; [14]): 96% | damage on PAPRH (Papaver rhoeas [2]; [15]): 100% | damage on PAPRH (Papaver rhoeas [2]; [16]): 100% | damage on PAPRH (Papaver rhoeas [2]; [17]): 100% | damage on PAPRH (Papaver rhoeas [2]; [18]): 80% | damage on PAPRH (Papaver rhoeas [2]; [19]): 85% | damage on PAPRH (Papaver rhoeas [2]; [20]): 97% | damage on PAPRH (Papaver rhoeas [2]; [21]): 97% | damage on PAPRH (Papaver rhoeas [2]; [22]): 97% | damage on PAPRH (Papaver rhoeas [2]; [23]): 98% | damage on PAPRH (Papaver rhoeas [2]; [24]): 100% | damage on PAPRH (Papaver rhoeas [2]; [25]): 100% | damage on PAPRH (Papaver rhoeas [2]; [26]): 98% | % activity (Centaurea cyanus): 98%
